Measurements reported in PubChem BioAssay (NCI).
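96-well plates; 48 h exposure; 5 concentrations. Endpoints by linear interpolation between flanking doses. Not reached: highest tested concentration assigned. TGI: total growth inhibition.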

What was measured:
Experiment in all cases: growth of human tumour cells (NCI), 48 h
[1] = system: 786-0 renal
[2] = system: A498 renal
[3] = system: A549 NSCLC
[4] = system: ACHN renal
[5] = system: BT-549 breast
[6] = system: CAKI-1 renal
[7] = system: CCRF-CEM leukemia
[8] = system: COLO 205 colon
[9] = system: DU-145 prostate
[10] = system: EKVX NSCLC
[11] = system: HCC-2998 colon
[12] = system: HCT-116 colon
[13] = system: HCT-15 colon
[14] = system: HL-60(TB) leukemia
[15] = system: HOP-62 NSCLC
[16] = system: HOP-92 NSCLC
[17] = system: HS 578T breast
[18] = system: HT29 colon
[19] = system: K-562 leukemia
[20] = system: KM12 colon
[21] = system: LOX IMVI melanoma
[22] = system: M14 melanoma
[23] = system: MALME-3M melanoma
[24] = system: MCF7 breast
[25] = system: MDA-MB-231 breast
[26] = system: MDA-MB-435
[27] = system: MDA-N
[28] = system: MOLT-4 leukemia
[29] = system: NCI-H226 lung
[30] = system: NCI-H23 lung
[31] = system: NCI-H460 lung
[32] = system: NCI-H522 lung
[33] = system: NCI/ADR-RES ovarian
[34] = system: OVCAR-3 ovarian
[35] = system: OVCAR-4 ovarian
[36] = system: OVCAR-5 ovarian
[37] = system: OVCAR-8 ovarian
[38] = system: PC-3 prostate
[39] = system: RXF 393 renal
[40] = system: SF-268 CNS
[41] = system: SF-295 CNS
[42] = system: SF-539 CNS
[43] = system: SK-MEL-2 melanoma
[44] = system: SK-MEL-28 melanoma
[45] = system: SK-MEL-5 melanoma
[46] = system: SK-OV-3 ovarian
[47] = system: SN12C renal
[48] = system: SNB-19 CNS
[49] = system: SNB-75 CNS
[50] = system: SR leukemia
[51] = system: SW-620 colon
[52] = system: T-47D breast
[53] = system: TK-10 renal
[54] = system: U251 CNS
[55] = system: UACC-257 melanoma
[56] = system: UACC-62 melanoma
[57] = system: UO-31 renal
[58] = system: IGROV1 ovarian
[59] = system: RPMI-8226 leukemia

COc1cccc2c1-c1ccccc1[C@H](Nc1ccccc1)[C@@]2(C)O
TGI [1]: 20.2 µM | TGI [2]: 22 µM | TGI [3]: 22.2 µM | TGI [4]: 21.6 µM | TGI [5]: 23.3 µM | TGI [6]: 17.5 µM | TGI [7]: 50.9 µM | TGI [8]: 10.4 µM | TGI [9]: 17.7 µM | TGI [10]: 25.1 µM | TGI [11]: 19.7 µM | TGI [12]: 15 µM | TGI [13]: 18.9 µM | TGI [14]: 26.8 µM | TGI [15]: 19 µM | TGI [16]: 26 µM | TGI [17]: 32 µM | TGI [18]: 14 µM | TGI [19]: > 100 µM | TGI [20]: 15.6 µM | TGI [21]: 28 µM | TGI [22]: 14.8 µM | TGI [23]: 22.1 µM | TGI [24]: 17.2 µM | TGI [25]: 24.3 µM | TGI [26]: 6.14 µM | TGI [27]: 5.25 µM | TGI [28]: > 100 µM | TGI [29]: 15.6 µM | TGI [30]: 23.2 µM | TGI [31]: 14 µM | TGI [32]: 8.49 µM | TGI [33]: 15.2 µM | TGI [34]: 7.85 µM | TGI [35]: 25.7 µM | TGI [36]: 28.2 µM | TGI [37]: 31 µM | TGI [38]: 19 µM | TGI [39]: 11 µM | TGI [40]: 21.1 µM | TGI [41]: 15.8 µM | TGI [42]: 11.6 µM | TGI [43]: 19.9 µM | TGI [44]: 26.7 µM | TGI [45]: 14.1 µM | TGI [46]: 21.3 µM | TGI [47]: 16.8 µM | TGI [48]: 19.3 µM | TGI [49]: 6.85 µM | TGI [50]: 22.9 µM | TGI [51]: 30 µM | TGI [52]: 30.2 µM | TGI [53]: 22.1 µM | TGI [54]: 16.3 µM | TGI [55]: 19.7 µM | TGI [56]: 21.6 µM | TGI [57]: 16.9 µM

COc1ccc(C2N(c3ccc(F)c([N+](=O)[O-])c3)C(=O)N3C(c4ccc(OC)cc4)N(c4ccc(F)c([N+](=O)[O-])c4)C(=O)N23)cc1 (configuration not stated)
TGI [1]: > 100 µM | TGI [2]: > 100 µM | TGI [3]: > 100 µM | TGI [4]: > 100 µM | TGI [5]: > 100 µM | TGI [6]: > 100 µM | TGI [7]: > 100 µM | TGI [8]: > 100 µM | TGI [9]: > 100 µM | TGI [10]: > 100 µM | TGI [11]: > 100 µM | TGI [12]: > 100 µM | TGI [13]: > 100 µM | TGI [14]: > 100 µM | TGI [15]: > 100 µM | TGI [16]: > 100 µM | TGI [17]: > 100 µM | TGI [18]: > 100 µM | TGI [58]: > 100 µM | TGI [20]: > 100 µM | TGI [21]: > 100 µM | TGI [22]: > 100 µM | TGI [23]: > 100 µM | TGI [24]: > 100 µM | TGI [25]: > 100 µM | TGI [26]: > 100 µM | TGI [27]: > 100 µM | TGI [30]: > 100 µM | TGI [31]: > 100 µM | TGI [32]: > 100 µM | TGI [33]: > 100 µM | TGI [34]: > 100 µM | TGI [35]: > 100 µM | TGI [36]: > 100 µM | TGI [37]: > 100 µM | TGI [38]: > 100 µM | TGI [59]: > 100 µM | TGI [39]: > 100 µM | TGI [40]: > 100 µM | TGI [41]: > 100 µM | TGI [42]: > 100 µM | TGI [43]: > 100 µM | TGI [44]: > 100 µM | TGI [45]: > 100 µM | TGI [47]: > 100 µM | TGI [48]: > 100 µM | TGI [49]: > 100 µM | TGI [50]: > 100 µM | TGI [51]: > 100 µM | TGI [52]: > 100 µM | TGI [53]: > 100 µM | TGI [54]: > 100 µM | TGI [55]: > 100 µM | TGI [56]: > 100 µM | TGI [57]: > 100 µM

NC(=O)SCC(=O)Nc1ccc2cccc3c2c1CC3
TGI [1]: 42.8 µM | TGI [2]: > 100 µM | TGI [3]: > 100 µM | TGI [4]: 44.7 µM | TGI [5]: 34.3 µM | TGI [6]: 91.9 µM | TGI [7]: > 100 µM | TGI [8]: > 100 µM | TGI [9]: > 100 µM | TGI [10]: > 100 µM | TGI [11]: > 100 µM | TGI [12]: 36 µM | TGI [13]: > 100 µM | TGI [14]: 28.3 µM | TGI [15]: > 100 µM | TGI [16]: 4.61 µM | TGI [17]: > 100 µM | TGI [18]: 88.7 µM | TGI [58]: > 100 µM | TGI [19]: > 100 µM | TGI [20]: > 100 µM | TGI [21]: 21.6 µM | TGI [22]: > 100 µM | TGI [23]: > 100 µM | TGI [24]: 29.6 µM | TGI [25]: 27.4 µM | TGI [26]: 33.6 µM | TGI [27]: 47.2 µM | TGI [28]: 63.1 µM | TGI [30]: 59.9 µM | TGI [32]: > 100 µM | TGI [33]: > 100 µM | TGI [34]: > 100 µM | TGI [35]: 56.8 µM | TGI [36]: 52 µM | TGI [37]: > 100 µM | TGI [38]: > 100 µM | TGI [59]: 49.2 µM | TGI [39]: 54.4 µM | TGI [40]: 44.8 µM | TGI [41]: > 100 µM | TGI [42]: 34.6 µM | TGI [43]: 47.1 µM | TGI [45]: 75.9 µM | TGI [47]: 45.6 µM | TGI [48]: > 100 µM | TGI [49]: > 100 µM | TGI [50]: 32.9 µM | TGI [51]: 24.6 µM | TGI [52]: 95.9 µM | TGI [53]: 69.8 µM | TGI [54]: 20.5 µM | TGI [55]: 51.3 µM | TGI [56]: 37.5 µM | TGI [57]: > 100 µM
